Experimental findings from ChEMBL document CHEMBL5303711, “ECBD screening data for assay EOS300108” (2023) are described below.

Active and inactive are the calls of the source. How the calls were made is not given here. Some results are limits rather than exact numbers.

A short description of the data set: Cytotoxicity activity against human HepG2 cells assessed by CellTiter-Glo luminescent cell viability assay. It counts as toxicity, cell-based. Details: assay stage confirmatory assay, source tissue liver. As to conditions: HepG2 cells, read-out: IC50 relative.

With `O=c1[nH]ccc2c(Br)cccc12`, the CC50 was 8.3 µM (inactive).

In the case of `CN1CCN(S(=O)(=O)c2cccc(C(=O)Nc3nc(-c4ccccc4)cs3)c2)CC1`, the CC50 was 12.5 µM (active).

For the compound `O=C(Nc1nnc(-c2ccccc2)o1)c1cccc(S(=O)(=O)N2CCOCC2)c1`, the CC50 was 8.9 µM (active).

For the compound `COc1ccc(NC(=O)c2cc(-c3ccccc3O)no2)cc1`, the CC50 was 12.3 µM (active).

Turning to `COc1ccc(-n2ccc(C(=O)Nc3cc(Cl)c(=O)n(C)c3)n2)cc1`, the CC50 was 7.7 µM (active).

Turning to `CC(C)N1CCC(NC(=O)CN2CCCN(Cc3ccccc3)c3ccccc32)CC1`, the CC50 is 12.4 µM (active).

As for `Cc1n[nH]c(C)c1CC(=O)Nc1cnn([C@@H](C)C2CC2)c1`, the CC50 was 50 µM (inactive).

In the case of `C[C@@H]1CNCCN1S(=O)(=O)c1cccc(Br)c1`, the CC50 was 50 µM (inactive).

Turning to `COC[C@H](C)Nc1cccc(N(C)C(C)C)c1`, the CC50 was 8.6 µM (active).

Regarding `Cc1cc(OCC(=O)Nc2nc(-c3ccccn3)cs2)no1`, the CC50 is 8.8 µM (active).

With `CNc1nc(N2CCCO[C@@H](CN)C2)nc2ccccc12`, the CC50 is 6.4 µM (active).

Consider `CC(C)c1cnc(NC(=O)N2CC3(CN(C)C(=O)O3)C2)s1`, for which the CC50 was 12.7 µM (inactive).

Take `CN1CCc2nc(C(=O)c3nc4c(s3)CN(C)CC4)sc2C1`: the CC50 is 0.5 µM (active).

For `CCOc1ncccc1C(=O)NCc1nccc2ccccc12`, the CC50 is 3.9 µM (active).

For the compound `CCN(C)C[C@H]1CCN(Cc2ccc(OCc3ccccc3F)nc2)C1`, the CC50 was 6.7 µM (active).

With `Cc1ccc(NC(=O)Cc2ccc(-n3cccc3)cc2)nc1`, the CC50 is 1.6 µM (active).

As for `Cc1ccc(-c2nc(C#N)c(S(=O)(=O)N(C)CCO)o2)cc1`, the CC50 is 7.3 µM (active).

Turning to `F[C@H](c1nc(-c2ccc(OCc3cccnc3)cc2)no1)C1CNC1`, the CC50 was 8.2 µM (active).

On to `O=C(Nc1cccc2cccnc12)c1cn2ccccc2n1`, for which the CC50 is < 0.1 µM (active).

As for `CCOc1cc(F)ccc1NC(=O)c1csc(-c2cnn(C)c2)n1`, the CC50 is 0.4 µM (active).

Regarding `CC(C)c1ccc(NC(=O)c2ccc(N3CCOCC3)nc2)cc1`, the CC50 is 10.5 µM (inactive).

For `CN(C)c1ccc(Cl)cc1NC(=O)c1cn(CCC2CCCCN2)nn1` (stereo unspecified), the CC50 is 6.8 µM (active).

As for `C#CC(=O)NCCNc1nc(C)nc(C)c1Br`, the CC50 was 0.8 µM (active).

Turning to `CCc1cccc2c(C3CCNCC3)c[nH]c12`, the CC50 is 11.4 µM (active).

Take `CCN(CC)Cc1ccccc1CNC(=O)N(CC)C[C@H]1COc2ccccc2O1`: the CC50 is 10.8 µM (active).

As for `O=C(Nc1ncccc1O)c1ccc(OCc2cn3ccccc3n2)cc1`, the CC50 is 6.7 µM (active).

As for `COc1ccc(OC)c(C(=O)Nc2nc3ccccc3[nH]2)c1`, the CC50 was 4.7 µM (active).

`C[C@H](O)CN1CCC(CNCc2cccc(C(F)(F)F)c2)CC1`: the CC50 was 15.5 µM (inactive).

As for `COc1ccc2oc(C(=O)Nc3ncccc3O)c(C)c2c1`, the CC50 is 47.2 µM (inactive).

Turning to `CCCCOc1ccc(C(=O)N2CCN(S(=O)(=O)c3ccc4c(c3)OCCCO4)CC2)cc1`, the CC50 was 3.2 µM (inactive).

`COc1cc(C(=O)Nn2cnc3ccccc32)cc(Cl)c1OCC(N)=O`: the CC50 is 8.3 µM (inactive).

With `c1ccc(COc2ccc3c(c2)CCNCC3)cc1`, the CC50 is 10.8 µM (active).

Turning to `Cc1occc1C(=O)Nc1ccc(N2CCCC2)cn1`, the CC50 is 8.8 µM (active).

Consider `Cc1cc(N)n(S(=O)(=O)c2oc(-c3ccccc3)nc2C#N)n1`, for which the CC50 is 7.6 µM (active).

Regarding `Cc1ccccc1-c1nc(C#N)c(NCC(C)N2CCN(C)CC2)o1` (stereo unspecified), the CC50 is 10.8 µM (active).

Turning to `COc1ccc2nc(NC(=O)CN3C(=O)c4ccccc4S3(=O)=O)sc2c1`, the CC50 was 14.8 µM (inactive).

Regarding `CCC[C@]1(C)NC(=O)N(Cc2cc(-c3ccccc3)on2)C1=O`, the CC50 was 2.4 µM (active).

Turning to `N#Cc1cc(NC[C@H](O)c2ccco2)nc2ccc(Cl)cc12`, the CC50 was 1.3 µM (active).

Regarding `Fc1ccc2[nH]c(CCNc3ncc(Cl)cn3)nc2c1`, the CC50 was 6.7 µM (active).

As to `Cc1ccc(NC(=O)c2cc3ccccc3c(=O)[nH]2)cc1`, the CC50 was 50 µM (inactive).

For the compound `O=C1COc2cc(C(=O)Nc3nc(-c4ccccn4)cs3)ccc2N1`, the CC50 is 1.5 µM (active).

As for `CCC1(CC)CCN(c2ncnc3[nH]ccc23)CC1`, the CC50 is 8.3 µM (active).

As for `CC(C)(C)n1c(NC(=O)c2ccncc2)nc2ccccc21`, the CC50 was 15.2 µM (active).

As to `CC1(C)[C@H]2CC=C(CCNC(=O)C3CCN(C(=O)c4ccccn4)CC3)[C@@H]1C2`, the CC50 was 4.5 µM (inactive).

Take `O=C(Cc1cnn(-c2ccccc2)c1)N1CCN(S(=O)(=O)c2ccc3c(c2)OCCCO3)CC1`: the CC50 is 8.6 µM (active).

Take `Cc1cc(=O)n2nc(Sc3ncc4ccccn34)sc2n1`: the CC50 was 12.1 µM (active).

For the compound `O=C(NCc1ccc(-n2ccnc2)nc1)[C@@H]1CC(c2ccccc2)=NO1`, the CC50 was 6.3 µM (active).

As to `CC(C)c1ccc(CN2CCN(C(=O)CN(C)C(=O)c3ccco3)CC2)cc1`, the CC50 was 4.4 µM (active).

On to `COc1ccc(CCN2Cc3ccc(N)cc3C2)cc1`, for which the CC50 was 20.2 µM (inactive).

On to `CCc1ccc(NC(=O)c2nc(S(C)(=O)=O)ncc2Br)cc1`, for which the CC50 was 3 µM (active).

Regarding `COCC1CCN(Cc2ccc(C(C)C)cc(O)c2=O)CC1`, the CC50 is 11.8 µM (active).

With `CN(Cc1ccc2c(c1)OCCO2)C(=O)[C@H]1CCCN(S(N)(=O)=O)C1`, the CC50 was 50 µM (inactive).

Turning to `COc1ccc(Cl)cc1CNCC1CCN(C[C@H](C)O)CC1`, the CC50 is 10.2 µM (active).

Take `Oc1ccc2[nH]ncc2c1Br`: the CC50 is 7.1 µM (active).

As for `CC(C)c1cnc(NC(=O)N2CC[C@H](Nc3ccc4nccn4n3)C2)s1`, the CC50 is 3.2 µM (active).

For the compound `Cc1cc(NC(=O)N[C@H]2CCN(CC3CCCC3)C2)cc(N2CCN(C)CC2)c1`, the CC50 was 9.3 µM (active).

Consider `O=C(Nc1cnn(-c2ccccn2)c1)c1ccc(O)c(Cl)c1`, for which the CC50 is 50 µM (inactive).

Turning to `CC(=O)c1ccc(S(=O)(=O)Nc2cccc3cccnc23)cc1`, the CC50 was 3.5 µM (active).

For the compound `Fc1ccc(C(CCNC[C@@H]2[C@H]3CNC[C@@H]23)c2ccco2)cc1` (stereo partly specified), the CC50 was 7.1 µM (active).

Regarding `CN([C@H]1CCN(c2ccccc2F)C1=O)S(=O)(=O)c1cccc2cnccc12`, the CC50 is 4.3 µM (active).

As for `CC(C)c1ccc(CNCCN2CCCCC2CO)cc1` (stereo unspecified), the CC50 was 4.3 µM (active).

Consider `COc1ccc(-c2nc(Cn3ncc(Cl)c(Cl)c3=O)co2)cc1`, for which the CC50 was 11 µM (active).

As to `COc1ccccc1OCCNc1ncnc2cc(F)ccc12`, the CC50 is 1.5 µM (active).

On to `Cc1nn(-c2cccc(Cl)c2)nc1C(=O)NC1CCN(C)CC1`, for which the CC50 is 9.4 µM (active).

Consider `COc1c(Br)cc(Cl)cc1S(=O)(=O)N1CCC[C@H](N)C1`, for which the CC50 is 16.1 µM (inactive).

Take `O=C(Nc1cccnc1)N1CCN(c2ccc(S(=O)(=O)N3CCOCC3)cn2)CC1`: the CC50 is 2.5 µM (active).

On to `Cc1cccc(OC[C@@H](O)CN2CCC(C(=O)N3CCc4ccccc43)CC2)c1`, for which the CC50 was 11.3 µM (active).

As for `O=C(CN1C(=O)COc2ccc(Cl)cc21)N1CCC(c2c[nH]c3ncccc23)CC1`, the CC50 was 8.8 µM (active).

As for `O=C(Cn1ncc(Cl)c(Cl)c1=O)N1CCC[C@H]1c1ccc2c(c1)OCCCO2`, the CC50 is 7.1 µM (active).

For `C[C@]1(c2cccc(C#N)c2)NC(=O)N(Cc2noc(-c3ccsc3)n2)C1=O`, the CC50 was 12.5 µM (inactive).

Regarding `CCC1CN(Cc2ccccc2OCc2cccc(OC)c2)CCN1C` (stereo unspecified), the CC50 was 17.8 µM (inactive).

As to `O=C(NCCc1ccco1)c1cc2ccccc2cc1O`, the CC50 was 8.5 µM (active).

On to `CCN(CC)c1cc(C)nc(Nc2ccc(NC(=O)C(C)C)cc2)n1`, for which the CC50 was 6.8 µM (active).

For the compound `CCn1c(SCc2cc(=O)n3ccsc3n2)nc2sc(C)c(C)c2c1=O`, the CC50 was 20.2 µM (inactive).

Turning to `Cc1cc(N2CCN([C@@H](C)C(=O)Nc3ccc(C#N)cc3)CC2)nc(C(C)C)n1`, the CC50 was 11.2 µM (active).

For `C[C@@H](NC1CCN(c2ccc(F)c(F)c2)CC1)[C@@H](O)c1ccc(O)cc1`, the CC50 was 14.6 µM (active).

For `Cc1cc(C)cc(OC[C@@H](O)CN2CCC(C(=O)Nc3ccccc3)CC2)c1`, the CC50 was 12.1 µM (active).

On to `CCN(C(=O)c1ccc(-n2ccnc2)nc1)S(=O)(=O)c1ccc(C)cc1`, for which the CC50 is 11.7 µM (inactive).

As to `COc1ncccc1-c1csc(-c2ccoc2)n1`, the CC50 is 1 µM (active).

With `O=S(=O)(Nc1cccc2cccnc12)c1ccccc1F`, the CC50 is 2.6 µM (active).

On to `Clc1cccc(N2CCN(C[C@H]3CCC4(CNC4)O3)CC2)c1`, for which the CC50 was 7 µM (active).

Regarding `O=C(Nc1nc(-c2ccc(F)cc2)n[nH]1)c1ccco1`, the CC50 is 3.4 µM (active).

For the compound `O=C(Nc1cccc2cccnc12)c1cccc2cn[nH]c12`, the CC50 is 50 µM (inactive).

Turning to `O=C(Nc1ccc(Cn2cnc3ccccc32)cc1)c1ccc(=O)[nH]n1`, the CC50 was 9.7 µM (inactive).

Turning to `Cc1nc2ccccc2n1CCN1CCN(CCOc2ccccc2)CC1`, the CC50 was 7.5 µM (active).

Turning to `CCOc1ccc(S(=O)(=O)N(C)c2ccccc2)cc1`, the CC50 is 7.5 µM (inactive).

As for `O=C(Nc1ccccc1O)c1cccc(NC(=O)c2cccs2)c1`, the CC50 was 7.1 µM (active).

With `Cc1cccc2nc(C(=O)Nc3ccc(S(=O)(=O)Nc4nccs4)cc3)cn12`, the CC50 was 1.4 µM (inactive).

`COc1ccccc1OCC(=O)Nc1nc(-c2ccccn2)cs1`: the CC50 is 2.7 µM (active).

On to `CN[C@H]1CCCN(C(=O)c2ccc(CN)cc2)C1`, for which the CC50 is 14.3 µM (inactive).

`COc1ccc(-c2cnc3ccc(N4CCCC4)nn23)cc1OC`: the CC50 is 4.3 µM (active).
